Results from ChEMBL document CHEMBL1201862, “PubChem BioAssay data set” (2004).
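96-well plates; 48 h exposure; 5 concentrations. Endpoints by linear interpolation between flanking doses. Not reached: highest tested concentration assigned. GI50: concentration for 50% inhibition of growth.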 Activity calls are given as the source filed them. No stated cut-off is given here; in the data, active = GI50 up to about 1.1 µM and inactive = higher.

Experiments:
Assay in all cases: inhibition of tumour cell growth, NCI panel, 48 h
[1] = tested on: CCRF-CEM
[2] = tested on: Malme-3M
[3] = tested on: DU-145
[4] = tested on: HT-29
[5] = tested on: T47D
[6] = tested on: A498
[7] = tested on: M14
[8] = tested on: NCI-H460
[9] = tested on: SK-OV-3
[10] = tested on: OVCAR-8
[11] = tested on: CAKI-1
[12] = tested on: KM12
[13] = tested on: 786-0
[14] = tested on: UO-31
[15] = tested on: BT-549
[16] = tested on: MDA-MB-231
[17] = tested on: OVCAR-5
[18] = tested on: MOLT-4
[19] = tested on: NCI-H522
[20] = tested on: MCF7
[21] = tested on: RPMI-8226
[22] = tested on: HOP-62
[23] = tested on: SR
[24] = tested on: SK-MEL-5
[25] = tested on: ACHN
[26] = tested on: MDA-N
[27] = tested on: HCT-15
[28] = tested on: SF-268
[29] = tested on: MDA-MB-435
[30] = tested on: PC-3
[31] = tested on: NCI-H226
[32] = tested on: UACC-257
[33] = tested on: SNB-19
[34] = tested on: SK-MEL-28
[35] = tested on: TK-10
[36] = tested on: SN12C
[37] = tested on: NCI-H23
[38] = tested on: HL-60
[39] = tested on: SF-295
[40] = tested on: SW-620
[41] = tested on: IGROV-1
[42] = tested on: Hs-578T
[43] = tested on: SF-539
[44] = tested on: OVCAR-3
[45] = tested on: K562
[46] = tested on: RXF 393
[47] = tested on: NCI/ADR-RES
[48] = tested on: HCC 2998
[49] = tested on: LOX IMVI
[50] = tested on: A549
[51] = tested on: UACC-62
[52] = tested on: SK-MEL-2

COc1ccc(Cn2nc(OCc3ccccn3)c3cc([N+](=O)[O-])ccc32)cc1
GI50 [1]: > 100 µM (inactive)
GI50 [2]: > 100 µM (inactive)
GI50 [3]: > 100 µM (inactive)
GI50 [4]: > 100 µM (inactive)
GI50 [5]: > 100 µM (inactive)
GI50 [6]: > 100 µM (inactive)
GI50 [7]: > 100 µM (inactive)
GI50 [8]: > 100 µM (inactive)
GI50 [9]: 63.7 µM (inactive)
GI50 [10]: 63.1 µM (inactive)
GI50 [11]: > 100 µM (inactive)
GI50 [12]: > 100 µM (inactive)
GI50 [13]: > 100 µM (inactive)
GI50 [14]: > 100 µM (inactive)
GI50 [15]: > 100 µM (inactive)
GI50 [16]: > 100 µM (inactive)
GI50 [17]: > 100 µM (inactive)
GI50 [18]: > 100 µM (inactive)
GI50 [19]: > 100 µM (inactive)
GI50 [20]: > 100 µM (inactive)
GI50 [21]: > 100 µM (inactive)
GI50 [22]: 28.1 µM (inactive)
GI50 [23]: > 100 µM (inactive)
GI50 [24]: > 100 µM (inactive)
GI50 [25]: > 100 µM (inactive)
GI50 [26]: > 100 µM (inactive)
GI50 [27]: > 100 µM
GI50 [28]: > 100 µM (inactive)
GI50 [29]: > 100 µM (inactive)
GI50 [30]: > 100 µM (inactive)
GI50 [31]: > 100 µM (inactive)
GI50 [32]: > 100 µM (inactive)
GI50 [33]: 85.9 µM (inactive)
GI50 [34]: > 100 µM (inactive)
GI50 [35]: > 100 µM (inactive)
GI50 [36]: > 100 µM (inactive)
GI50 [37]: > 100 µM (inactive)
GI50 [38]: > 100 µM (inactive)
GI50 [39]: 50.9 µM (inactive)
GI50 [40]: > 100 µM (inactive)
GI50 [41]: > 100 µM (inactive)
GI50 [42]: > 100 µM (inactive)
GI50 [43]: 33.3 µM (inactive)
GI50 [44]: > 100 µM (inactive)
GI50 [45]: > 100 µM (inactive)
GI50 [46]: > 100 µM (inactive)
GI50 [47]: > 100 µM (inactive)
GI50 [48]: > 100 µM (inactive)
GI50 [49]: > 100 µM (inactive)
GI50 [50]: > 100 µM (inactive)
GI50 [51]: 35.7 µM (inactive)
GI50 [52]: 49.5 µM (inactive)
